Each block holds one molecule with its values, some of them ahead of it. Starred links: 1 amine or outer side, 2 acyl side, 3 side chain; linkers in the order of their positions; H or OH if unused. Non-standard residues stand in square brackets, D forms with d. Residues, ends and D or L forms follow the SMILES beside them. Groups on a side chain read outwards from the residue. No end group written: not given here. *: point of attachment. C20 diacid = O=C(O)CCCCCCCCCCCCCCCCCCC(=O)*; C18 diacid = O=C(O)CCCCCCCCCCCCCCCCC(=O)*; γGlu = O=C(O)[C@H](CCC(=O)[*:2])N[*:1]; Stearoyl = CCCCCCCCCCCCCCCCCC(=O)*; αMeF = C[C@](N)(Cc1ccccc1)C(=O)O; PEG2 = NCCOCCOCCC(=O)O; AEEA = NCCOCCOCC(=O)O; Aib = CC(C)(N)C(=O)O
Experiments:
neprilysin = biological target: T1, neprilysin (Homo sapiens, UniProt P08473); assay: Proteolytic resistance to neprilysin; type: in vitro ADME; details: pH 8.3
T1 construct: purchased R&D Systems 1182-ZNC-010
T1 sequence (P08473 whole entry): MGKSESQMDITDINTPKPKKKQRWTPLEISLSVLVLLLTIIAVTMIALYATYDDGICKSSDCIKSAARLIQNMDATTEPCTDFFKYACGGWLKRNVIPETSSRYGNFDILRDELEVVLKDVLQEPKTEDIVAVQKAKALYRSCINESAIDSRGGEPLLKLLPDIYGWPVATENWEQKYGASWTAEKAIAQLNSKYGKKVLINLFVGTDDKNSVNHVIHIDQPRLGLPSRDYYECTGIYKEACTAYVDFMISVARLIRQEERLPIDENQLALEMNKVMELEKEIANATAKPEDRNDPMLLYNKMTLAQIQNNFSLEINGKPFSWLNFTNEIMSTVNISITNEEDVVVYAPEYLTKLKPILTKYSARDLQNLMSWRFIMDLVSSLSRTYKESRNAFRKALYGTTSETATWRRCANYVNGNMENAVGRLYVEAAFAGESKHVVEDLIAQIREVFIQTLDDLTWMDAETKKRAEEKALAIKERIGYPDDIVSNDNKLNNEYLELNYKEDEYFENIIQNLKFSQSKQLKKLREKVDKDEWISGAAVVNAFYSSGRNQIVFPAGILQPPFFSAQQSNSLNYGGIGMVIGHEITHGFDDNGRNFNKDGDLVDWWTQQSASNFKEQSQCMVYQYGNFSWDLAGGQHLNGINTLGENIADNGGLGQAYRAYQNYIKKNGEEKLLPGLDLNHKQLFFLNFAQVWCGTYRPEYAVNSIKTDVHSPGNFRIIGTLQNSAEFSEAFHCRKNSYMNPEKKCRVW
Experimental: 10.0 μg (˜10 units) recombinant Neprilysin (R&D Systems: 1182-ZNC-010) was reconstituted to 100 μL (100 μg/mL, ˜100 units/mL) in assay buffer (50 mM Tris, 50 mM NaCl, 50 mM NaHCO3, adjusted to pH 8.3) to give the enzyme stock solution. Peptide stock solutions were prepared to a concentration of ˜250 μM (˜1.0 mg/mL of 4 kDa peptide) in assay buffer. 100 μL (10 μg, ˜10 units) of neprilysin stock solution was added to 100 μL of peptide stock solution (1.0 mg/mL, ˜100 μg of peptide) and the mixture was co-incubated in a temperature regulated incubator at 37° C. for the duration of the experiment. 25 μL aliquots (˜12.5 μg initial peptide) of the peptide-enzyme mixture were periodically withdrawn (t=0, 30 mins, 1 h, 2 h, 4 h and 24 h) and quenched immediately by addition to an equal volume ([…]) of 10% TFA (v/v) in 1:1 water/acetonitrile to arrest proteolytic activity. The quenched aliquot centrifuged at 7800 rpm, and 30 μL of the supernatant was analyzed by analytical RP-HPLC as follows: Analytical RP-HPLC method: Agilent Polaris C8-A column (4.6×100 mm, 3 micron) eluted with a linear binary gradient of 10-90% MeCN (0.1% TFA v/v) in water (0.1% TFA v/v) over either 10 or 15 mins at 1.5 mL min^−1 at 40° C. with detection by UV absorption at 210 nm. Manual integration (AUC) allowed estimation of remaining intact peptide over the time course of the experiment.

wildtype (WT) mice = assay: Glucose change in wildtype mice; type: in vivo, mouse; details: s.c.
Experimental: (§1) GLP-JR knockout (KG) and wildtype (WT) mice at 8-14 weeks of age were singly housed on standard chow diet (Envigo, 2918) and automatic water. They acclimated for a minimum of ˜1-2 weeks, and mice were sorted into groups (n=4-8/group) based on body weight. On day of study, mice were fasted briefly for 2 hrs prior to study start. In some studies, mice were pre-treated with octreotide (BaChem, 10 mg/kg) at 30 minutes prior to peptide injection. Glucose was measured via glucometer at various timepoints including −30 min (prior to octreotide when used in studies), 0 min (before peptide dose), 30, 60, 120, 180, 240, and 360 minutes. Since these studies are acute in nature, mice were re-used for multiple studies (no more than 3) and always allowed at least a minimum wash-out period of 1 week.

[1] = biological target: T2, human GLP-1 receptor (hGLP-1R) (Homo sapiens, UniProt P43220); assay: cAMP production (HTRF) in CHO cells expressing human GLP-1 receptor; type: cell-based; details: Table 8; % GLP-1R activity relative to GLP-1 / % GlucR activity relative to glucagon
T2 construct: expressed in transfected cells; host or cells: CHO
T2 sequence (P43220 24-463): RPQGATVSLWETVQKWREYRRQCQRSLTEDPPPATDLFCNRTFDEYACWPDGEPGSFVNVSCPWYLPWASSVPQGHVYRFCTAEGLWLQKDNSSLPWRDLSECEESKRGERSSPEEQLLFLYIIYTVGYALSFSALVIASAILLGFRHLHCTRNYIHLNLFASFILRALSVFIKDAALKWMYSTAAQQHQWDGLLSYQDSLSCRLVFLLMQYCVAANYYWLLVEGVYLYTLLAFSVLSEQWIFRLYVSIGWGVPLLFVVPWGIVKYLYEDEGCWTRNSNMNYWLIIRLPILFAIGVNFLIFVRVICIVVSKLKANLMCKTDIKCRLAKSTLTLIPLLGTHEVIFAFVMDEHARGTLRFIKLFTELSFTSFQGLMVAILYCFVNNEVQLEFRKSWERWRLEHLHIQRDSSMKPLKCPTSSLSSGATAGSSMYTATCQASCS

Male C57Bl/6 mice = assay: Mouse acute food intake study; type: in vivo; details: s.c., dose 10 nmol/kg, food intake at 24 h vs vehicle
Experimental: Male C57Bl/6 mice obtained from Jackson Laboratories or Charles River at 8-9 weeks of age and were housed one per cage in BioDaq (Research Diets) cages. Mice were placed on Alpha Dri bedding, standard chow diet (Envigo, 2018) and given water pouches. Mice were allowed to acclimate for 1-2 weeks. Body weight was measured to ensure appropriate acclimation. After acclimation, mice were sham dosed a minimum of 2 times prior to initiation of food intake study. On study day, mice were placed in clean cage bottoms, weighed, and fasted for 6-8 hours. Mice were sorted into groups based on average 24-hour food intake data and body weight. 1-2 hours prior to lights out, mice were dosed subcutaneously with one vehicle or test peptide dissolved in an appropriate vehicle at 5 mL/kg. Mice were left undisturbed and allowed access to food and water for 48 hours. Automated food intake was monitored in the BioDaq system was monitored during this time. Discrete food intake data was exported into MS Excel from which cumulative food intake data was generated and analyzed.

GLP-1R knockout mice = assay: Glucose change in GLP-1R knockout mice; type: in vivo, mouse; details: GLP-1R KO mice, s.c., 10 nmol/kg, no somatostatin pretreatment
Experimental: as §1, with “They” for “GLP-JR knockout (KG) and wildtype (WT) mice at 8-14 weeks of age were singly housed on standard chow diet (Envigo, 2918) and automatic water. They”

human glucagon receptor = human glucagon receptor (human, UniProt P47871); assay: cell-based or functional assay

% intact peptide over time, Neprilysin (neprilysin): 100%
Molecule: CCCCCCCCCCCCCCCCCC(=O)N[C@@H](CCC(=O)N[C@@H](CCC(=O)NCCOCCOCCC(=O)NCCOCCOCCC(=O)NCCCC[C@H](NC(=O)[C@H](CO)NC(=O)[C@H](CC(=O)O)NC(=O)[C@H](CC(C)C)NC(=O)[C@](C)(Cc1ccccc1)NC(=O)[C@H](CCCCN)NC(=O)[C@H](CO)NC(=O)[C@@H](NC(=O)[C@H](CC(=O)O)NC(=O)[C@H](CO)NC(=O)[C@@H](NC(=O)[C@](C)(Cc1ccccc1)NC(=O)[C@H](CO)NC(=O)CNC(=O)[C@H](CCC(N)=O)NC(=O)[C@H](CO)NC(=O)[C@@H](N)Cc1c[nH]cn1)[C@@H](C)O)C(C)C)C(=O)N[C@@H](C)C(=O)N[C@@H](C)C(=O)N[C@@H](CCC(N)=O)C(=O)N[C@@H](CC(=O)O)C(=O)N[C@@](C)(Cc1ccccc1)C(=O)N[C@H](C(=O)N[C@@H](CCC(N)=O)C(=O)NC(C)(C)C(=O)N[C@@H](CC(C)C)C(=O)N[C@@H](CCC(=O)O)C(=O)N[C@@H](C)C(=O)NCC(=O)NCC(N)=O)C(C)C)C(=O)O)C(=O)O [Peptide 78] (H-HSQGS[αMeF]TSDVSK[αMeF]LDSK([PEG2-PEG2-γGlu-γGlu-Stearoyl])AAQD[αMeF]VQ[Aib]LEAGG-NH2; N-terminus assumed)
WT % glucose change 120 min (wildtype (WT) mice; 3 nmol/kg, no somatostatin pretreatment): −42.0%

% Relative Potency Ratio [1]: 1.3
Molecule: CC[C@H](C)[C@H](NC(=O)[C@H](Cc1c[nH]c2ccccc12)NC(=O)[C@H](CCCCNC(=O)COCCOCCNC(=O)COCCOCCNC(=O)CC[C@H](NC(=O)CCCCCCCCCCCCCCCCC(=O)O)C(=O)O)NC(=O)[C@@H](NC(=O)[C@H](Cc1ccccc1)NC(=O)[C@H](CC(=O)O)NC(=O)[C@H](CCC(N)=O)NC(=O)[C@H](C)NC(=O)[C@H](C)NC(=O)[C@H](CCCNC(=N)N)NC(=O)[C@H](CO)NC(=O)[C@H](CC(=O)O)NC(=O)[C@H](CC(C)C)NC(=O)[C@](C)(Cc1ccccc1)NC(=O)[C@H](CCCCN)NC(=O)[C@H](CO)NC(=O)[C@@H](NC(=O)[C@H](CC(=O)O)NC(=O)[C@H](CO)NC(=O)[C@@H](NC(=O)[C@](C)(Cc1ccccc1)NC(=O)[C@H](CO)NC(=O)CNC(=O)[C@H](Cc1c[nH]cn1)NC(=O)C(C)(C)NC(=O)[C@@H](N)Cc1c[nH]cn1)[C@@H](C)O)C(C)C)C(C)C)C(=O)N[C@@H](C)C(=O)N[C@@H](CC(N)=O)C(=O)N[C@H](C(N)=O)[C@@H](C)O [Peptide 361] (H-H[Aib]HGS[αMeF]TSDVSK[αMeF]LDSRAAQDFVK([AEEA-AEEA-γGlu-C18 diacid])WIANT-NH2)
WT % glucose change 120 min (wildtype (WT) mice; 10 nmol/kg, somatostatin pretreatment 30 min prior to cpd): −23.0%

% Relative Potency Ratio [1]: 1.4
Molecule: CC[C@H](C)[C@H](NC(=O)C(C)(C)NC(=O)[C@H](CCCCNC(=O)COCCOCCNC(=O)COCCOCCNC(=O)CC[C@H](NC(=O)CC[C@H](NC(=O)CCCCCCCCCCCCCCCCCCC(=O)O)C(=O)O)C(=O)O)NC(=O)[C@@H](NC(=O)[C@](C)(Cc1ccccc1)NC(=O)[C@H](CC(=O)O)NC(=O)[C@H](CCC(N)=O)NC(=O)[C@H](C)NC(=O)[C@H](C)NC(=O)[C@H](CCCNC(=N)N)NC(=O)[C@H](CO)NC(=O)[C@H](CC(=O)O)NC(=O)[C@H](CC(C)C)NC(=O)[C@](C)(Cc1ccccc1)NC(=O)[C@H](CCCCN)NC(=O)[C@H](CO)NC(=O)[C@@H](NC(=O)[C@H](CC(=O)O)NC(=O)[C@H](CO)NC(=O)[C@@H](NC(=O)[C@](C)(Cc1ccccc1)NC(=O)[C@H](CO)NC(=O)CNC(=O)[C@H](Cc1c[nH]cn1)NC(=O)C(C)(C)NC(=O)[C@@H](N)Cc1c[nH]cn1)[C@@H](C)O)C(C)C)C(C)C)C(=O)N[C@@H](C)C(=O)N[C@@H](CC(N)=O)C(=O)N[C@H](C(N)=O)[C@@H](C)O [Peptide 375] (H-H[Aib]HGS[αMeF]TSDVSK[αMeF]LDSRAAQD[αMeF]VK([AEEA-AEEA-γGlu-γGlu-C20 diacid])[Aib]IANT-NH2)
24 hr % Vehicle Food Intake (Male C57Bl/6 mice): 66.0%

Molecule: CC(C)C[C@H](NC(=O)[C@H](Cc1c[nH]c2ccccc12)NC(=O)[C@H](CCC(N)=O)NC(=O)[C@@H](NC(=O)[C@H](Cc1ccccc1)NC(=O)[C@H](CC(=O)O)NC(=O)[C@H](CCCNC(=N)N)NC(=O)[C@H](C)NC(=O)[C@H](CCCNC(=N)N)NC(=O)[C@H](CCCCNC(=O)COCCOCCNC(=O)COCCOCCNC(=O)CC[C@H](NC(=O)CCCCCCCCCCCCCCCCC(=O)O)C(=O)O)NC(=O)[C@@H](NC(=O)[C@H](CC(=O)O)NC(=O)[C@H](CC(C)C)NC(=O)[C@](C)(Cc1ccccc1)NC(=O)[C@H](CCCCN)NC(=O)[C@H](CO)NC(=O)[C@@H](NC(=O)[C@H](CC(=O)O)NC(=O)[C@H](CO)NC(=O)[C@@H](NC(=O)[C@H](Cc1ccccc1)NC(=O)[C@@H](NC(=O)CNC(=O)[C@H](CCC(N)=O)NC(=O)C(C)(C)NC(=O)[C@@H](N)Cc1c[nH]cn1)[C@@H](C)O)[C@@H](C)O)C(C)C)[C@@H](C)O)C(C)C)C(=O)N[C@@H](CC(C)C)C(=O)N[C@@H](CCC(=O)O)C(=O)NC(C)(C)C(=O)NCC(=O)O [Peptide 188, H-Aib-Q-G-T-F-T-S-D-V-S-K-αMePhe-L-D-T-K-R-A-R-D-F-V-Q-W-L-L-E-Aib-G-acid]
GLP-1R KO % glucose change −60 min (GLP-1R knockout mice): 64%

hGluc-R EC50 (pM) (human glucagon receptor): 72.4 pM
Molecule: H[Aib]HGS[αMeF]TSDVSK[αMeF]LDSRAAQDFVK([AEEA-AEEA-γGlu-C20 diacid])WIANT-NH2 (not fully specified) [Peptide 367]

hGluc-R EC50 (pM) (human glucagon receptor): 42.8 pM
B1: Peptide 362 (peptide)
peptide: H[Aib]HGS[αMeF]TSDVSK[αMeF]LDSRAAQDFVK([AEEA-AEEA-γGlu-γGlu-C18 diacid])WIANT-NH2
modifications: N-terminus assumed
SMILES: CC[C@H](C)[C@H](NC(=O)[C@H](Cc1c[nH]c2ccccc12)NC(=O)[C@H](CCCCNC(=O)COCCOCCNC(=O)COCCOCCNC(=O)CC[C@H](NC(=O)CC[C@H](NC(=O)CCCCCCCCCCCCCCCCC(=O)O)C(=O)O)C(=O)O)NC(=O)[C@@H](NC(=O)[C@H](Cc1ccccc1)NC(=O)[C@H](CC(=O)O)NC(=O)[C@H](CCC(N)=O)NC(=O)[C@H](C)NC(=O)[C@H](C)NC(=O)[C@H](CCCNC(=N)N)NC(=O)[C@H](CO)NC(=O)[C@H](CC(=O)O)NC(=O)[C@H](CC(C)C)NC(=O)[C@](C)(Cc1ccccc1)NC(=O)[C@H](CCCCN)NC(=O)[C@H](CO)NC(=O)[C@@H](NC(=O)[C@H](CC(=O)O)NC(=O)[C@H](CO)NC(=O)[C@@H](NC(=O)[C@](C)(Cc1ccccc1)NC(=O)[C@H](CO)NC(=O)CNC(=O)[C@H](Cc1c[nH]cn1)NC(=O)C(C)(C)NC(=O)[C@@H](N)Cc1c[nH]cn1)[C@@H](C)O)C(C)C)C(C)C)C(=O)N[C@@H](C)C(=O)N[C@@H](CC(N)=O)C(=O)N[C@H](C(N)=O)[C@@H](C)O

Source: patent publication US12630600B2 (MEDIMMUNE LIMITED, priority 2022, dated 2026)
